The text below walks through data of patent publication US20110160399A1, “HISTONE MODIFICATION INHIBITOR SPECIFIC TO TARGET GENE” (NIHON UNIVERSITY, priority 2008, published 2011).

Test [1] relates to histone deacetylase (HDAC). As to the kind of experiment: HDAC activity assay (HDAC Fluorimetric Assay/Drug Discovery Kit). Conditions: HDAC-containing HeLa cell nuclear fraction, 37°C for 1 hour, various concentrations, FIG. 2. It is filed as biochemical, human. The method, then: To verify whether the activity of histone deacetylase (HDAC) was inhibited by compounds composed of the synthesized SAHA derivatives and polyamides attached to each other, an HDAC Fluorimetric Assay/Drug Discovery Kit (BIOMOL international) was used in the experiment. Although details followed the instructions of the kit manufacturer, an HDAC-containing HeLa cell (human uterine cervical cancer cell line) nuclear fraction was added to an acetylation substrate and incubated at 37° C. for 1 hour in the presence of various concentrations of the synthesized compounds or trichostatin A (hereinafter referred to as TSA) used as a positive control, followed by addition of the developer included in the kit to stop the HDAC-catalyzed reaction. Then, the samples were transferred to a 96-well assay plate and measured with ARVO EX (Perkin Elmer) for emission at 460 nm from the reaction product upon excitation at 360 nm.

Test [2] deals with HeLa (human uterine cervical cancer cell line). The test can be described thus: Cell proliferation assay (WST-8) on HeLa cells. It is filed as cell-based. Conditions: 72 hours, various concentrations, WST-8, FIG. 3, FIG. 4. On the procedure: Next, the synthesized compounds were verified by WST-8 assay for their ability to suppress cancer cell proliferation.
Cell lines of HeLa (human uterine cervical cancer cell line), LOVO, RKO and SW480 (each of which was a human large bowel cancer cell line) were each cultured at 37° C. under 5% carbon dioxide conditions using Dulbecco's modified Eagle's medium (DMEM, Nacalai Tesque, Inc., Japan) supplemented with 10% fetal bovine serum (FBS: JRH bioscience, USA), antibiotics (50 U/ml penicillin and 50 μg/ml streptomycin) and 1 mM sodium pyruvate. Single-layered cells grown to 80-90% confluency on 10 cm cell culture dishes were washed with D-PBS(−) (Nacalai Tesque, Inc., Japan) and then released from the dishes by being treated with a phenol red-containing 2.5 g/L-Trypsine/1 mmol/L EDTA solution (Nacalai Tesque, Inc., Japan). The released cells were adjusted and maintained in fresh medium.
Each cell line seeded at 3×10^3 cells/well in a MICROTEST tissue culture plate (96 well, FALCON) was cultured at 37° C. under 5% carbon dioxide conditions for 24 hours, and then cultured in the presence of various concentrations of PI polyamide for an additional 72 hours. After completion of the culture, 10 μl of viable cell counting reagent SF (Nacalai Tesque, Inc., Japan) was added to each well and the absorbance at 450 nm was measured by ARVO EX (PerkinElmer). During the period from reagent addition until assay, incubation was continued at 37° C. in the presence of 5% CO2 until the absorbance reached about 1.2 to 2.0 in the control sample where only 50% DMSO was added to the cells.
A general note: Tetrazolium assays rely on reduction of a dye to a coloured formazan, in cell work by metabolically active cells.

Test [3] has as its system MDA-MB231 breast cancer cells. As to the kind of experiment: Cell proliferation assay (II), trypan blue cell counts. The settings on record: after culture for 72 hours, FIG. 12. It is filed as cell-based. On the procedure:
MDA-MB231 breast cancer cells (1×10^5 cells) were cultured in 6 cm diameter dishes using RPMI-1640 medium containing fetal bovine serum at a final concentration of 10%. For culture, the medium was supplemented with or without each polyamide (SAHA+p16NU PIP or SAHA+non-targeting PIP) at the final concentration indicated below.
Starting from the initiation of culture, the following operation was repeated every 24 hours. Namely, after being observed under a microscope, the cells were harvested and counted to determine the numbers of viable cells […] and dead cells […]. As a result, proliferation of the cells and their survival rate were determined.

Turning to `COC(=O)CCCCCCC(=O)Nc1ccc(C(=O)NCCC(=O)NCCC(=O)Nc2cn(C)c(C(=O)Nc3cc(C(=O)Nc4cc(C(=O)NCCC(=O)Nc5cn(C)c(C(=O)Nc6cc(C(=O)NCCCC(=O)Nc7cn(C)c(C(=O)Nc8cc(C(=O)NCCC(=O)Nc9cn(C)c(C(=O)Nc%10cn(C)c(C(=O)Nc%11cc(C(=O)NCCC(=O)NCCCN(C)C)n(C)c%11)n%10)n9)n(C)c8)n7)n(C)c6)n5)n(C)c4)n(C)c3)n2)cc1` [esterified SAHA+p16 PIP, 4-(8-methoxy-8-oxooctanamido)benzoyl-ββImPyPyβImPyγImPyβImIm PyβDp], the anti-HDAC activity entry is reported as “no HDAC activity” in test [1]; “did not inhibit HDAC activity” in test [1] (listed as conjugate between esterified SAHA and p16 PIP). For the same molecule, in test [2], the “suppression of HeLa cell proliferation” value is on record as “not suppressed”.
As to “SAHA-H2NββPyPyβPyPyPyγImImImβPyImβDp [SAHA+p16NU PIP]”, the “cell proliferation significantly suppressed, compared to untreated group or 1 μM SAHA+non-targeting PIP” value was 83% in test [3] (MDA-MB231, 1 μM) and “about 60%” in test [3] (MDA-MB231, 2 μM).
Take `CN(C)CCCNC(=O)CCNC(=O)c1cc(NC(=O)c2cc(NC(=O)c3nc(NC(=O)CCCNC(=O)c4cc(NC(=O)c5nc(NC(=O)c6nc(NC(=O)CCNC(=O)CCNC(=O)c7ccc(NC(=O)CCCCCCC(=O)NO)cc7)cn6C)cn5C)cn4C)cn3C)cn2C)cn1C` [SAHA+non-targeting PIP, SAHA-ββImPyPyγImImPyβDp]: the anti-HDAC activity result in test [1] was “confirmed to have anti-HDAC activity”. In addition, in test [2], the “suppression of HeLa cell proliferation” value is recorded as “not suppressed”.
Consider `O=C(CCCCCCC(=O)Nc1ccccc1)NO` [SAHA, suberoylanilide hydroxamic acid, reference compound], for which the “suppression of HeLa cell proliferation” value in test [2] was “did not suppress”.
Turning to `CC(/C=C/C(=O)NO)=C\[C@@H](C)C(=O)c1ccc(N(C)C)cc1` [TSA, trichostatin A, reference compound], the anti-HDAC activity result in test [1] was “high activity”. Moreover, the “suppression of HeLa cell proliferation” value in test [2] is “proliferation inhibition”.
On to “SAHA-(PEG) ββImPyPyβImPyγImPyβImImPyβDp [SAHA+ether linker+p16 PIP]”, for which the anti-HDAC activity entry in test [1] is on record as “confirmed to have anti-HDAC activity”.
